Laboratory results published in article PMC10973027 (Molecular Imaging and Biology, 2023).
“And” between values parts separate entries of the source, which are not always exact repeats. Equal entries are not always repeated. “Also recorded” adds a separate entry of the source.

Columns and labels:
[1] = design: method as in PMID 35959805; details: UP0030 study participants, 2 h post dose; cited from earlier work
[2] = background statement, no reference given; cited from earlier work
[3] = Radio-HPLC metabolite analysis of mouse brain homogenate and plasma after IV radiotracer; assay type: in vivo, male C57 black 6 mice; details: for % Parent Plasma / % Parent Brain: individual mice; for % Parent Brain: brain homogenate; for share of total brain activity corresponding to the parent / share of total plasma activity corresponding to the parent: approximate
Protocol: In this preclinical study, two radiolabeling positions were investigated, [^11C-N-CH3]UCB2713 and [^11C]carbonyl UCB2713 ([^11C-CO]UCB2713). The radiolabeling of [^11C-N-CH3]UCB2713 was performed by N-methylation of the corresponding desmethyl precursor with [^11C]methyl iodide and radiolabeling of [^11C-CO]UCB2713 was performed by [^11C]aminocarbonylation of the iodo precursor and the amino precursor with [^11C]carbon monoxide in the presence of Pd(π-cinnamyl) chloride dimer and Xantphos (4,5-bis(diphenylphosphino)-9,9-dimethylxanthene) (Fig. 1b). For additional information on the precursor molecules and radiolabeling methods, see the electronic supplement. A high-performance liquid chromatography (HPLC) metabolite analysis method was developed to quantify the ratio of [^11C-N-CH3]UCB2713 and other unidentified metabolites in plasma and brain homogenate samples. Relative quantification was used to provide the ratio of parent to metabolite in these samples.
Preclinical experiments were conducted on male C57 black 6 mice (N = 10). In vivo experiments were performed on 3 mice and included a PET scan of the brain; ex vivo experiments were performed on all 10 mice and included samples of brain homogenate.
[11C]UCB2713 in vivo/ex vivo Evaluation
Administration of Radioligand and Collecting Samples
Each mouse received an intravenous (IV) bolus injection of [11C]UCB2713 via the jugular vein. The mean (standard deviation [SD]) mass of each radiotracer dose was 1.54 (± 1.03) µg; with a radioactive dose of 17.26 (± 10.88) MBq. At pre-defined time points (40, 60, and 90 min) post-administration of [11C]UCB2713, each mouse was euthanized by exsanguination, followed by cervical dislocation, with blood samples collected in heparin tubes and the brain dissected.
Brain Sample Processing and Preparation of Sample for Analysis
A sample of brain homogenate (1:1, brain:water) was assessed for radioactivity using a γ-counter. Brain homogenate was extracted with a ratio of 1:2 (homogenate:acetonitrile); a ratio of 1:1 was used for the first two animals. The mixture was vortexed for 3 min followed by centrifugation (12000 x g) for 5 min at room temperature. The extraction efficiency was […]
Brain extraction efficiency = counts per minute (CPM) in supernatant (brain extract)/CPM in brain homogenate extracted
To identify the parent-retention time based on the ultraviolet (UV) chromatogram, 20 µL of a solution containing UCB2713 was added to the supernatant (350 µL), followed by 350 µL of 50 mM ammonium formate (adjusted to pH 8), then 0.5 mL of the resulting solution was injected onto the high-performance liquid chromatography (HPLC) column.
Two aliquots of this solution were counted to determine the HPLC recovery as follows:
Recovery efficiency % = = i=1 ∙100 […]
Where “CPM(aliq.)” is the radioactivity measured for the HPLC brain homogenate samples aliquot, “Valiq.” Is the volume of each aliquot , “CPM fi” is the count per minute for fraction “i” and ∑ 30 is the sum of 30 fractions.
Mouse blood samples were centrifuged at 7500 x g for 3 min at 4 °C and plasma was extracted with a ratio of 1:1 (plasma:acetonitrile). The plasma extraction efficiency was […]
Plasma extraction efficiency = CPM in supernatant (plasma extract)/CPM in plasma […]
Samples were prepared as described above for the brain, and two aliquots of solution were counted to determine the HPLC column recovery.
HPLC Procedure and Data Analysis
The HPLC system used a pump, degasser, UV-Vis/Diode Array Detector, and fraction collector. HPLC conditions used were 55% acetonitrile and 45% 100 mM ammonium formate (Method 1), or 48% acetonitrile and 52% 100 mM ammonium formate (adjusted to pH 8; Method 2) as the mobile phase at 5 mL/min and an Agilent XDB-C18 semi-preparative […]
(§1) column (5 micron, 250 x 9.4 mm; Method 2); 30 sample fractions (Method 1) and 36 sample fractions (Method 2) were collected over either a 10- or 12-min run.
A radio-chromatogram was reconstructed from the HPLC fractions collected and the […]

[4] = PET-CT imaging of the mouse brain (time-activity curve, SUV); assay type: in vivo, male C57 black 6 mice; details: at 60 min
Protocol: Preclinical experiments were conducted on male C57 black 6 mice (N = 10). In vivo experiments were performed on 3 mice and included a PET scan of the brain; ex vivo experiments were performed on all 10 mice and included samples of brain homogenate. […]
as §1
A radio-chromatogram was reconstructed from the HPLC fractions collected and the percent of unchanged [11C]UCB2713 was calculated:
[11C]UCB2713 parent fraction = i=n i
Where “cCPM fi” is the radioactivity measured for the HPLC fraction, corrected for the background radioactivity. “n” is first and “m” the last HPLC fraction containing the parent compound (1 ≤ n, m ≤ 30 or 36 [where 30 or 36 are the total number of fractions collected]).
PET-Computed Tomography (CT) Scanning and Image Reconstruction
Three mice were euthanized at the 90 min time point following radioligand injection. Prior to euthanization, these mice were scanned by PET-CT. A dynamic PET scan (Siemens Inveon DPET with docked multi-modality CT scanner) was acquired for each anesthetized mouse following IV administration of [11C]UCB2713. PET images were acquired in list mode and reconstructed with increasing time frames over the duration of the scan to characterize radiotracer kinetics. […]

[5] = Phase 1 PET-CT brain biodistribution study TM0017 (VT, K1, k2); assay type: in vivo, human
Protocol: A sample size of 2–10 participants was considered sufficient to meet the objectives, whilst limiting radiation exposure.
The preparation of radiopharmaceuticals and execution of PET-CT scans was performed by radiochemists, physicians, and technologists of Invicro (London, UK). Following local anesthesia, a catheter was inserted into the radial artery by an experienced physician; two venous catheters were also inserted. […] Upon administration, dynamic scanning started immediately and continued for 90 min.
Arterial input function data were acquired and processed for all PET scans.
Anatomical regions of interest (ROI) were defined via nonlinear deformation of a template MR image and associated neuroanatomical atlas, to match individual participants’ MR images. These ROI included, but were not limited to: parietal lobe, occipital lobe, frontal lobe, temporal lobe, striatum, cerebellum, thalamus, and the brain stem. Participants’ PET images were registered to their MR images, enabling the individualized ROI to be applied to the dynamic emission data to generate regional time activity curves (TACs). For additional information on the generation of regional TACs, see the electronic supplement.
Phase 1 PET Study in Healthy Male Participants (TM0017)
The TAC and total plasma data were fitted to a single compartment model to determine the influx and efflux constants K1 and k2. Because the plasma free fraction estimate is imprecise, we elected to fit the model using the total (free and bound) arterial concentration input function. The parameters of this model are related to the analogous parameters which would be estimated using an accurate estimate of the free arterial concentration using the equations below. We were able therefore to determine and present the K1 and estimated whole brain total distribution volume (VT), with relatively good repeatability between patients, and the equations below could also be used to relate the overall mean estimates back to the ideal total brain to free plasma minzasolmin (V’T) and unidirectional extraction Eu which can be calculated using the free fraction. The blood volume in the model was fixed at 5%. In this model, radiotracer which is free in tissue, non-specifically bound and specifically bound (i.e. to a target of interest) are lumped together in a single compartment, and so interchange between those states is assumed to be rapid.
The arterial input function used represents the total concentration of parent radiotracer in plasma, with no correction for plasma protein binding and the fitted and observed K1 from this model is lower than the rate of uptake from the free plasma concentration (K’1):
To calculate the Eu from the observed K1 from the model we then need to combine […]
The partition coefficient between total brain and total plasma concentration was determined from the fitted K1 and k2 parameters: […]
and the ratio of total concentration in brain to free concentration in plasma ( V’T) could be […]
Supplemental Fig. 1. Example of HPLC chromatograms (radioactive trace, top; UV trace, bottom) obtained during HPLC analysis of [11C-N-CH3]UCB2713 dose. The time delay

[6] = Plasma pharmacokinetics after single oral dose in TM0017; assay type: in vivo; details: male, human, TM0017, single oral 360 mg
[7] = Plasma free fraction; assay type: in vitro ADME; details: human plasma
[8] = design: method as in PMID 35959805; details: cited from earlier work
[9] = test system: Caco-2 cell system; design: method as in PMID 35959805; details: Caco-2, in vitro; cited from earlier work
[10] = test system: ASYN pathology; details: mouse model of PD, once-daily over 3 months; cited from earlier work
[11] = Safety and tolerability in TM0017 (TEAEs, ECG, vital signs)
Protocol: Other safety variables recorded include changes in 12-lead electrocardiogram (ECG) assessment and changes in vital signs (heart rate, systolic blood pressure, diastolic blood pressure, respiratory rate, and body temperature). Vital signs were measured in supine position following 5 min of rest and clinically significant abnormalities (according to the investigator) were recorded as an AE. All ECG recordings were performed following 5 min of rest in the supine position, in triplicate, with ≥ 1 min between each recording. If any clinically significant abnormalities occurred, an ECG data specialist was to review the recordings.

[12] = mouse, 40 min post-administration
[13] = UP0030, 90–450 mg single ascending dose
[14] = TM0017, N = 4, single oral dose 360 mg

## CCCC[C@H](Cc1c[nH]c2ccccc12)NC(=O)c1cnc(N2CC[N+](C)([O-])CC2)s1 [N-oxide]
[1]
  concentration in CSF, times lower than the parent minzasolmin concentration: ~ 20 times

## CCCCC(Cc1c[nH]c2ccccc12)NC(=O)c1cnc(N2CCN(C)CC2)s1 (stereo not drawn) [UCB2713]
[2]
  rate of metabolism compared with the other enantiomer: higher rate of metabolism

## CCCC[C@@H](Cc1c[nH]c2ccccc12)NC(=O)c1cnc(N2CCN([11CH3])CC2)s1 [[^11C-N-CH3]UCB2713]
[3]; 40 min post IV administration
  % Parent Plasma: 34.3% and 27.0% and 29.3% and 30.8%
  % Parent Brain: 62.0% and 61.1% and 56.0% and 58.2%
[3]; 60 min post IV administration
  % Parent Plasma: 30.6% and 19.5% and 24.6%
  % Parent Brain: 52.6% and 40.9% and 50.3%
[3]; 90 min post IV administration
  % Parent Plasma: 9.7% and 26.0% and 17.7%
  % Parent Brain: 34.7% and 29.7% and 22.1%
[3]; male, C57 black 6, mouse, brain/plasma, intravenous, 1.54 µg, mouse, 40 min, read-out: ratio (SD) of parent in the brain versus parent in plasma
  Kp at 40 min: 0.77 ± 0.11
[3]; male, C57 black 6, mouse, brain/plasma, intravenous, 1.54 µg, mouse, 60 min, read-out: ratio (SD) of parent in the brain versus parent in plasma
  Kp at 60 min: 0.73 ± 0.06
[3]; male, C57 black 6, mouse, brain/plasma, intravenous, 1.54 µg, mouse, 90 min, read-out: ratio (SD) of parent in the brain versus parent in plasma
  Kp at 90 min: 0.79 ± 0.69
[3]; [12]
  share of total brain activity corresponding to the parent: approximately 60%
  share of total plasma activity corresponding to the parent: approximately 30%
[3]; mouse, 90 min
  share of total brain activity corresponding to the parent: approximately 30%
  share of total plasma activity corresponding to the parent: ~20%
[3]; radio-HPLC column eluent front ~1.5-2 min
  polar metabolites in mouse brain: significant contribution of brain activity from polar metabolites
[4]
  standard uptake volume (SUV), whole brain: ~ 0.2

## CCCC[C@H](Cc1c[nH]c2ccccc12)NC(=O)c1cnc(N2CCN(C)CC2)s1 [minzasolmin, N-[(1R)-1-(1H-indol-3-ylmethyl)pentyl]-2-(4-methylpiperazin-1-yl)thiazole-5-carboxamide]
[5]; male, human, brain/plasma, intravenous, steady-state, from VT, read-out: Kp (total brain to total plasma concentration, partition coefficient)
  Kp: ~0.5
[5]; minzasolmin 360 mg/day dose, with plasma concentrations of UP0077
  maximum projected human total brain concentration: up to 1273 ng/mL
[6]; read-out: AUC GeoMean (time zero to infinity)
  AUC: 13200 ng·h/mL
[6]; read-out: Cmax GeoMean
  Cmax: 1580 ng/mL
[6]; read-out: apparent terminal elimination half-life (GeoMean) (converted)
  half-life: 11.4 h
[6]; read-out: tmax Median
  Tmax: 2 h
[7]
  fraction unbound: ~0.025
[8]; [13]
  AUC GeoMean (time zero to infinity): 3225 to 17040 ng·h/mL
  Cmax GeoMean: 374 to 1806 ng/mL
  tmax Median: 1.5 to 2 h
[8]; previous phase 1/1b studies
  apparent terminal elimination half-life, GeoMean range: 9.3 to 13.1 h
[9]
  permeability: high permeability
[10]
  tolerability: well-tolerated
[11]; [14]
  Any TEAEs: 3 (75) n (%)
  Deaths: 0 n (%)
  Discontinuations due to TEAEs: 0 n (%)
  Drug-related TEAEs: 0 n (%)
  Serious TEAEs: 0 n (%)
  Severe TEAEs: 0 n (%)
  TEAEs of special interest: 0 n (%)
[11]; TM0017, healthy male participants
  ECG parameters, vital signs, laboratory parameters: No clinically relevant findings in ECG parameters or vital sign measurements; also recorded: no clinically relevant findings in laboratory parameters, vital signs, or ECG recordings
[11]; TM0017 overall, three out of four participants
  participants reporting TEAEs: 75%
